How the values were obtained:
HPK1 [1] = target: T1, HPK1 (Homo sapiens, UniProt Q92918); test: HPK1 kinase activity assay (ADP-Glo); settings: HPK1 Kinase activity IC50, ADP-Glo; 1 nM HPK1, 10 μM ATP, 0.1 μg/μL MBP
T1 sequence (Q92918 1-346): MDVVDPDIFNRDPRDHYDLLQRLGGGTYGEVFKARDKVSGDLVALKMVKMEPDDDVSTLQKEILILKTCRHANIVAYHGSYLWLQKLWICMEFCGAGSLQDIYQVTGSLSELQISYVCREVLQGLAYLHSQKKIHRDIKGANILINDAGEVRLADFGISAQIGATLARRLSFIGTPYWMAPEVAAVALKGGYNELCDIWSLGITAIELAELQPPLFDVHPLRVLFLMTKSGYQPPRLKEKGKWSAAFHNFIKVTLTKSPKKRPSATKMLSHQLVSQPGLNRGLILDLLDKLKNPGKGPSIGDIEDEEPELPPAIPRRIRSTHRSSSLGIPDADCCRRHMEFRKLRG

HPK1 [2] = target: HPK1 (Homo sapiens, UniProt Q92918); test: SLP76 phosphorylation assay (intracellular HPK1 inhibitory activity, p-SLP76 S376 ELISA in Jurkat cells); settings: p-SLP76 IC50, Jurkat, Clone E6-1 cells; 1 h compound pre-incubation; anti-CD3 beads stimulation 20 min; Phospho-SLP-76 (Ser376) ELISA
Target sequence in this assay (Q92918 whole entry): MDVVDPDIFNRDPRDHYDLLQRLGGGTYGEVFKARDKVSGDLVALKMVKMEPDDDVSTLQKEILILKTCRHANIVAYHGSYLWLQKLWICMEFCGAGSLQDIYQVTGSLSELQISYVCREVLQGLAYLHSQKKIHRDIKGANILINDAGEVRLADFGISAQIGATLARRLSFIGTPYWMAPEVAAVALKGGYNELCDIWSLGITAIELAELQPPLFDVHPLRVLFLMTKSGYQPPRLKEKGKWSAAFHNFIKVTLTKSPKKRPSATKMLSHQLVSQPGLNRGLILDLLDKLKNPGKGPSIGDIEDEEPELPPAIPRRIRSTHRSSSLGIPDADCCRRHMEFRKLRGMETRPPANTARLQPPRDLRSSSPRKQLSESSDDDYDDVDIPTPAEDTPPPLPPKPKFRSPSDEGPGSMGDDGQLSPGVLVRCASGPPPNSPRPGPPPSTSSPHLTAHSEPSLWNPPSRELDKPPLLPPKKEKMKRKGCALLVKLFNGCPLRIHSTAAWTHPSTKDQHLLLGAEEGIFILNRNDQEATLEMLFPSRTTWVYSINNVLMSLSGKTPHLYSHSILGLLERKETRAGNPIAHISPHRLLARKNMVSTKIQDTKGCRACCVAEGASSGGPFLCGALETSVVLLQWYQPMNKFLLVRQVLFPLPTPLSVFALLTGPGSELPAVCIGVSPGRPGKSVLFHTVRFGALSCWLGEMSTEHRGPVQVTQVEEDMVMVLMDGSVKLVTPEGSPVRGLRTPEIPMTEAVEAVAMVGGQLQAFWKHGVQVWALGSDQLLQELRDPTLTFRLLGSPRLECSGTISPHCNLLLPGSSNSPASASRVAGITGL

Compound	IC50 (HPK1 [1]) [µM]	IC50 (HPK1 [2]) [µM]
Cc1c[nH]c2ncc(-c3cc4c(c([C@@H]5COCCN5)c3)CN(C(=O)N3CC[C@H](F)C3)CC4)cc12 [Compound Z488, ((S)-3-fluoropyrrolidin-1-yl)(6-(3-methyl-1H-pyrrolo[2,3-b]pyridin-5-yl)-8-((R)-morpholin-3-yl)-3,4-dihydroisoquinolin-2(1H)-yl)methanone]	0.00021	0.15
O=C(N1CCc2cc(-c3cnc4[nH]cc(Cl)c4c3)cc([C@@H]3COCCN3)c2C1)N1C2CCC1COC2 [Compound Z489, (3-oxa-8-azabicyclo[3.2.1]octan-8-yl)(6-(3-chloro-1H-pyrrolo[2,3-b]pyridin-5-yl)-8-((R)-morpholin-3-yl)-3,4-dihydroisoquinolin-2(1H)-yl)methanone]	0.00021	0.0821
Cc1c[nH]c2ncc(-c3cc4c(c([C@@H]5COCCN5)c3)CN(C(=O)N3C5CCC3COC5)CC4)cc12 [Compound Z492, (3-oxa-8-azabicyclo[3.2.1]octan-8-yl)(6-(3-methyl-1H-pyrrolo[2,3-b]pyridin-5-yl)-8-((R)-morpholin-3-yl)-3,4-dihydroisoquinolin-2(1H)-yl)methanone]	0.00018	0.0957
Cc1c[nH]c2ncc(-c3cc4c(c([C@@H]5CCCN5)c3)CN(C(=O)c3cc(C5CC5)nn3C)CC4)cc12 [Compound Z493, (S)-(3-cyclopropyl-1-methyl-1H-pyrazol-5-yl)-[6-(3-methyl-1H-pyrrolo[2,3-b]pyridin-5-yl)-8-[pyrrolidin-5-yl]-3,4-dihydroisoquinolin-2(1H)-yl]methanone]	0.00041	0.295
Cc1c[nH]c2ncc(-c3cc4c(c([C@@H]5CCCN5)c3)CN(C(=O)c3ccn(C5CC5)n3)CC4)cc12 [Compound Z494, (S)-(1-cyclopropyl-1H-pyrazol-3-yl)(6-(3-methyl-1H-pyrrolo[2,3-b]pyridin-5-yl)-8-(pyrrolidin-2-yl)-3,4-dihydroisoquinolin-2(1H)-yl)methanone]	0.00081	0.453
CC(C)(O)C(=O)N1CCc2cc(-c3cnc4[nH]cc(Cl)c4c3)cc([C@@H]3CCCN3)c2C1 [Compound Z496]	0.00022	0.0627
Cc1c[nH]c2ncc(-c3cc4c(c([C@@H]5CCCN5)c3)CN(C(=O)N3CCOC(C(F)(F)F)C3)CC4)cc12 (stereo partly drawn) [Compound Z497, [6-(3-methyl-1H-pyrrolo[2,3-b]pyridin-5-yl)-8-[(S)-pyrrolidin-2-yl]-3,4-dihydro-isoquinolin-2(1H)-yl]-[2-(trifluoromethyl)morpholin-4-yl]methanone]	0.0004	0.186
Cc1c[nH]c2ncc(-c3cc4c(c([C@@H]5COCCN5)c3)CN(C(=O)C(C)(C)O)CC4)nc12 [Compound Z507, (R)-1-(6-(7-methyl-5H-pyrrolo[2,3-b]pyrazin-2-yl)-8-(morpholin-3-yl)-3,4-dihydroisoquinolin-2(1H)-yl)-2-hydroxy-2-methylpropan-1-one]	0.00043	0.119
Cc1c[nH]c2ncc(-c3cc4c(c([C@@H]5COCCN5)c3)CN(C(=O)N3C[C@H](C)O[C@@H](C)C3)CC4)cc12 [Compound Z512, ((2S,6S)-2,6-dimethylmorpholine)(6-(3-methyl-1H-pyrrolo[2,3-b]pyridin-5-yl)-8-((R)-morpholin-3-yl)-3,4-dihydroisoquinolin-2-1H-yl)methanone]	0.00035	0.148
Cc1c[nH]c2ncc(-c3cc4c(c([C@@H]5COCCN5)c3)CN(C(=O)N3C[C@H]5C[C@@H]3CO5)CC4)cc12 [Compound Z518]	0.00022	0.13
CC(C)(O)C(=O)N1CCc2cc(-c3cnc4[nH]cc(C5CC5)c4c3)cc([C@@H]3COCCN3)c2C1 [Compound Z523, (R)-1-(6-(3-cyclopropyl-1H-pyrrolo[2,3-b]pyridin-5-yl)-8-(morpholin-3-yl)-3,4-dihydroisoquinolin-2(1H)-yl)-2-hydroxy-2-methylpropan-1-one]	0.00017	0.0518
CCc1c[nH]c2ncc(-c3cc4c(c([C@@H]5COCCN5)c3)CN(C(=O)N3CCOCC3)CC4)nc12 [Compound Z528, (R)-(6-(7-ethyl-5H-pyrrolo[2,3-b]pyrazin-2-yl)-8-(morpholin-3-yl)-3,4-dihydroisoquinolin-2(1H)-yl)(morpholino)methanone]	0.00016	0.0424
CC(C)c1c[nH]c2ncc(-c3cc4c(c([C@@H]5COCCN5)c3)CN(C(=O)C(C)(C)O)CC4)nc12 [Compound Z541, (R)-2-hydroxy-1-(6-(7-isopropyl-5H-pyrrolo[2,3-b]pyrazin-2-yl)-8-(morpholin-3-yl)-3,4-dihydroisoquinolin-2(1H)-yl)-2-methylpropan-1-one]	0.00016	0.0337
O=C(N1CCc2cc(-c3cnc4[nH]cc(C(F)(F)F)c4c3)cc([C@@H]3COCCN3)c2C1)N1CC2CCC(C1)O2 [Compound Z544, (8-oxa-3-azabicyclo[3.2.1]octan-3-yl)(8-((R)-morpholin-3-yl)-6-(3-(trifluoromethyl)-1H-pyrrolo[2,3-b]pyridin-5-yl)-3,4-dihydroisoquinolin-2(1H)-yl)methanone]	0.00012	0.0501
O=C(N1CCc2cc(-c3cnc4[nH]cc(Cl)c4n3)cc([C@@H]3COCCN3)c2C1)N1CC2CCC(C1)O2 [Compound Z549, (8-oxa-3-azabicyclo[3.2.1]octan-3-yl)(6-(7-chloro-5H-pyrrolo[2,3-b]pyrazin-2-yl)-8-((R)-morpholin-3-yl)-3,4-dihydroisoquinolin-2(1H)-yl)methanone]	0.00011	0.0663
Cc1c[nH]c2ncc(-c3cc4c(c([C@@H]5COCCN5)c3)CN(C(=O)N3C[C@@H](C)O[C@H](C)C3)CC4)cc12 [Compound Z552, ((2R,6R)-2,6-dimethylmorpholine)(6-(3-methyl-1H-pyrrolo[2,3-b]pyridin-5-yl)-8-((R)-morpholin-3-yl)-3,4-dihydroisoquinolin-2(1H)-yl)methanone]	0.00022	0.105
Cc1c[nH]c2ncc(-c3cc4c(c([C@@H]5COCCN5)c3)CN(C(=O)N3CCC(F)CC3)CC4)nc12 [Compound Z566, (R)-(4-fluoropiperidin-1-yl)(6-(7-methyl-5H-pyrrolo[2,3-b]pyrazin-2-yl)-8-(morpholin-3-yl)-3,4-dihydroisoquinolin-2(1H)-yl)methanone]	0.00024	0.0818
Cc1c[nH]c2ncc(-c3cc4c(c([C@@H]5COCCN5)c3)CN(C(=O)[C@](C)(O)C(F)(F)F)CC4)nc12 [Compound Z568, (S)-3,3,3-trifluoro-2-hydroxy-2-methyl-1-(6-(7-methyl-5H-pyrrolo[2,3-b]pyrazin-2-yl)-8-((R)-morpholin-3-yl)-3,4-dihydroisoquinolin-2(1H)-yl)propan-1-one]	0.00033	0.0662
Cc1c[nH]c2ncc(-c3cc4c(c([C@@H]5COCCN5)c3)CN(C(=O)N3C5CCC3COC5)CC4)nc12 [Compound Z570, (3-oxa-8-azabicyclo[3.2.1]octan-8-yl)(6-(7-methyl-5H-pyrrolo[2,3-b]pyrazin-2-yl)-8-((R)-morpholin-3-yl)-3,4-dihydroisoquinolin-2(1H)-yl)methanone]	0.00013	0.0319
O=C(N1CCc2cc(-c3cnc4[nH]cc(Cl)c4n3)cc([C@@H]3COCCN3)c2C1)N1C2CCC1COC2 [Compound Z571, (3-oxa-8-azabicyclo[3.2.1]octan-8-yl)(6-(7-chloro-5H-pyrrolo[2,3-b]pyrazin-2-yl)-8-((R)-morpholin-3-yl)-3,4-dihydroisoquinolin-2(1H)-yl)methanone]	0.00049	0.108
Cc1c[nH]c2ncc(-c3cc4c(c([C@@H]5COCCN5)c3)CN(C(=O)N3CC5CCC(C3)O5)CC4)nc12 [Compound Z572, (8-oxa-3-50 azabicyclo[3.2.1]octan-3-yl)(6-(7-methyl-5H-pyrrolo[2,3-b]pyrazin-2-yl)-8-((R)-morpholin-3-yl)-3,4-dihydroisoquinolin-2(1H)-yl)methanone]	0.00016	0.028
Cc1c[nH]c2ncc(-c3cc4c(c([C@@H]5COCCN5)c3)CN(C(=O)N3CCOC[C@@H]3C)CC4)nc12 [Compound Z574, (6-(7-methyl-5H-pyrrolo[2,3-b]pyrazin-2-yl)-8-((R)-morpholin-3-yl)-3,4-dihydroisoquinolin-2(1H)-yl)((S)-3-methylmorpholine)methanone]	0.00041	0.0839
Cc1c[nH]c2ncc(-c3cc4c(c([C@@H]5COCCN5)c3)CN(C(=O)N3CC(O)CC3(C)C)CC4)cc12 (some centres unmarked) [Compound Z577]	0.00025	0.0781
Cc1c[nH]c2ncc(-c3cc4c(c([C@@H]5COCCN5)c3)CN(C(=O)N3CCOC[C@@H]3C)CC4)cc12 [Compound Z581, (6-(3-methyl-1H-pyrrolo[2,3-b]pyridin-5-yl)-8-((R)-morpholin-3-yl)-3,4-dihydroisoquinolin-2(1H)-yl)((S)-3-methylmorpholino)methanone]	0.00024	0.0867
Cc1c[nH]c2ncc(-c3cc4c(c([C@@H]5COCCN5)c3)CN(C(=O)N3CCC(F)CC3)CC4)cc12 [Compound Z585, (R)-(4-fluoropiperidin-1-yl)(6-(3-methyl-1H-pyrrolo[2,3-b]pyridin-5-yl)-8-(morpholin-3-yl)-3,4-dihydroisoquinolin-2(1H)-yl)methanone]	0.00025	0.0832

Source: patent publication US20250084078A1, “FUSED RING-SUBSTITUTED SIX-MEMBERED HETEROCYCLIC COMPOUND, AND PREPARATION METHOD THEREFOR AND USE THEREOF” (GENFLEFT THERAPEUTICS (SHANGHAI) INC., priority 2022, published 2025)
